These results are taken from ChEMBL document CHEMBL1681705, “Optimisation of ITK inhibitors through successive iterative design cycles” (Bioorg Med Chem Lett, 2011).

Molecules are shown by their SMILES.

The residual activity is the signal under treatment as a percentage of the control signal. What is called inhibition is how much of the control response was suppressed.

For assay [1], the target named is Tyrosine-protein kinase CSK (Homo sapiens) (UniProt P41240). Nature of the assay: Inhibition of CSK at 1 uM; values are per cent of control.
Tyrosine-protein kinase CSK (Homo sapiens), sequence (P41240 2-450 limits assumed): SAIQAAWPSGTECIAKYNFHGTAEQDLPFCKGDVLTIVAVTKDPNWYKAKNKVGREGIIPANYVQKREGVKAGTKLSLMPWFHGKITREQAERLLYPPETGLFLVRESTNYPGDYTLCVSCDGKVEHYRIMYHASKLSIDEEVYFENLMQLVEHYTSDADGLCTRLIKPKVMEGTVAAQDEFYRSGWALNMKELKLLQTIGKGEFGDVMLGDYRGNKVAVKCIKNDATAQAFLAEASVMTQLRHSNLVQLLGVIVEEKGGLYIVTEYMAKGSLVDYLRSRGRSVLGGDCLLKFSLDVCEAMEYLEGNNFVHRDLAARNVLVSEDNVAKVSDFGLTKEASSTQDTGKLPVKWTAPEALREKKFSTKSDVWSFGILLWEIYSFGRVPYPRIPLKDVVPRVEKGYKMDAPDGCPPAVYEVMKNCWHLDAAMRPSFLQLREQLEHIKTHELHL
For assay [2], the target named is T1, Serine/threonine-protein kinase D2 (Homo sapiens) (UniProt Q9BZL6).
T1 sequence (whole entry): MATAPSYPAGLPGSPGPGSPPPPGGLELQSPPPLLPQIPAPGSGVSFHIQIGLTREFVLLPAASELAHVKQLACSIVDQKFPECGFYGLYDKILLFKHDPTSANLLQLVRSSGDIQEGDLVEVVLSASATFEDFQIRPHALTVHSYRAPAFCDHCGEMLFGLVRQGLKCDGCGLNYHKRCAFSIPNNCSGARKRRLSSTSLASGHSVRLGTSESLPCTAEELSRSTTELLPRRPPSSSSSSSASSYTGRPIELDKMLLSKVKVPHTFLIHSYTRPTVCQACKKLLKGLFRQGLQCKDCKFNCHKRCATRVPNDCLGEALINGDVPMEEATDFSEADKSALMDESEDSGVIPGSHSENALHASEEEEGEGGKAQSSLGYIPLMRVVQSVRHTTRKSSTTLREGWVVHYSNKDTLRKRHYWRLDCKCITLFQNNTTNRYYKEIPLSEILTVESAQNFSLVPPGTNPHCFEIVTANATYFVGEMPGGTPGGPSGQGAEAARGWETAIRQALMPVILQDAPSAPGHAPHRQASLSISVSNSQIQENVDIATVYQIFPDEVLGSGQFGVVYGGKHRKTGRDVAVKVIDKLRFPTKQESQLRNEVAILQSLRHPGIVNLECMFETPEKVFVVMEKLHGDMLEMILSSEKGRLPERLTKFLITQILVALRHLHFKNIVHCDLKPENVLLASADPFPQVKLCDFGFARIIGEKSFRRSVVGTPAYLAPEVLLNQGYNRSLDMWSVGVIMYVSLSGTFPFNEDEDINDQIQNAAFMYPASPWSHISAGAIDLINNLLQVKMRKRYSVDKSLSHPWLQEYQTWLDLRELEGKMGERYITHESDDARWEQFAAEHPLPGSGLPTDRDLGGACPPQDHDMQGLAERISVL
Nature of the assay: Inhibition of PKD2 at 0.1 uM; values are per cent of control.

For assay [3], the target named is Serine/threonine-protein kinase SIK1 (Homo sapiens) (UniProt P57059). The assay is described as follows: Inhibition of SIK at 1 uM.
Serine/threonine-protein kinase SIK1 (Homo sapiens), sequence (P57059 whole entry): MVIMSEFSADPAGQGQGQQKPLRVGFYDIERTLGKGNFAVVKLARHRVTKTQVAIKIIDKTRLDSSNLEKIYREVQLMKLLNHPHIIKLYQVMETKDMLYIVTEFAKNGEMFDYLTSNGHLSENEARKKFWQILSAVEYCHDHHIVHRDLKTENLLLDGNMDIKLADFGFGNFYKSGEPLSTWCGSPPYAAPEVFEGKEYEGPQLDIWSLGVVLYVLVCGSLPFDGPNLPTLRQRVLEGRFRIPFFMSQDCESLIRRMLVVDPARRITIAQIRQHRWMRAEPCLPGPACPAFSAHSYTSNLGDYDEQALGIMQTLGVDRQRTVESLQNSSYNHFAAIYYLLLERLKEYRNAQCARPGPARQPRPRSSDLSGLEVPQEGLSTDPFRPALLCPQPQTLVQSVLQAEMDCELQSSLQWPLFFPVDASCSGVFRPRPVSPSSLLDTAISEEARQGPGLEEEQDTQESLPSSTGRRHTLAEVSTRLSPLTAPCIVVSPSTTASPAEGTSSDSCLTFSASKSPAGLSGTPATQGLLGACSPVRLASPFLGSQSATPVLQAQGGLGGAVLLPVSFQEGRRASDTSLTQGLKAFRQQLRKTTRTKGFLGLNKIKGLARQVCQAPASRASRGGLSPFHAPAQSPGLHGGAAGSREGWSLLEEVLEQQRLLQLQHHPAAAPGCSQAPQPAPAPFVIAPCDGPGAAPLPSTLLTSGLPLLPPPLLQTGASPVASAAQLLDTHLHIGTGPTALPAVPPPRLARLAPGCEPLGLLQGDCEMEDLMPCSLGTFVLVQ
In assay [4] the target is Angiopoietin-1 receptor (Homo sapiens) (UniProt Q02763). The assay is described as follows: Inhibition of Tie2 at 1 uM; values are per cent of control.
Angiopoietin-1 receptor (Homo sapiens), sequence (Q02763 whole entry): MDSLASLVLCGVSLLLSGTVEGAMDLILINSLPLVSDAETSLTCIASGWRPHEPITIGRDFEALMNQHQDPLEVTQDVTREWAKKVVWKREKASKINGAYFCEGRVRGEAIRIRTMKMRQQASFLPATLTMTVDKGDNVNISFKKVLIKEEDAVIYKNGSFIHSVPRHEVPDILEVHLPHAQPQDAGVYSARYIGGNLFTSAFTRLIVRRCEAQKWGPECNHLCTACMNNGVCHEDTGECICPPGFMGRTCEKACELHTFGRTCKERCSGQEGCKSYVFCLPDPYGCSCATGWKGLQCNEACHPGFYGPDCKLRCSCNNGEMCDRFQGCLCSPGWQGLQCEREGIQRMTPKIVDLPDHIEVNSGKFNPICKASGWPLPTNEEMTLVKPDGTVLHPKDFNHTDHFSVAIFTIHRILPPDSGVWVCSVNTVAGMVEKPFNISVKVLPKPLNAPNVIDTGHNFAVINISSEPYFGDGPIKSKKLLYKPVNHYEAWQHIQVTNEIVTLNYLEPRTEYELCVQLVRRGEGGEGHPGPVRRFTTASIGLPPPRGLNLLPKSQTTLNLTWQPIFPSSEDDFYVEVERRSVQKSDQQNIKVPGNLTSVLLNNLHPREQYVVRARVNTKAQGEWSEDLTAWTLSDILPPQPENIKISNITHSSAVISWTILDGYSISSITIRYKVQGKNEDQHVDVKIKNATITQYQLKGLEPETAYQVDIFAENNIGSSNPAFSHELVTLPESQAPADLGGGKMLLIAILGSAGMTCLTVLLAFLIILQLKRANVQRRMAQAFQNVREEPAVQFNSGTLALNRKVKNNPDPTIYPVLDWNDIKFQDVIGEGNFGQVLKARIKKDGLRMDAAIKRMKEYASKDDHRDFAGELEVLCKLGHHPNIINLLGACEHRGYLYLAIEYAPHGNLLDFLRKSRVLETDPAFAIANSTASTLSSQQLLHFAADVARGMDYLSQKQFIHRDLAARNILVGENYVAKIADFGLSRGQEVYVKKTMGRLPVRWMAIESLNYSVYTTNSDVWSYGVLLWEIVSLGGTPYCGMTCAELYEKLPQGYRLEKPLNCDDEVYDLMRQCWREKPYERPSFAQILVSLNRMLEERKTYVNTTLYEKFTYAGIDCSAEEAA
The target of assay [5] is T2, Ephrin type-B receptor 1 (Homo sapiens) (UniProt P54762).
T2 sequence (whole entry): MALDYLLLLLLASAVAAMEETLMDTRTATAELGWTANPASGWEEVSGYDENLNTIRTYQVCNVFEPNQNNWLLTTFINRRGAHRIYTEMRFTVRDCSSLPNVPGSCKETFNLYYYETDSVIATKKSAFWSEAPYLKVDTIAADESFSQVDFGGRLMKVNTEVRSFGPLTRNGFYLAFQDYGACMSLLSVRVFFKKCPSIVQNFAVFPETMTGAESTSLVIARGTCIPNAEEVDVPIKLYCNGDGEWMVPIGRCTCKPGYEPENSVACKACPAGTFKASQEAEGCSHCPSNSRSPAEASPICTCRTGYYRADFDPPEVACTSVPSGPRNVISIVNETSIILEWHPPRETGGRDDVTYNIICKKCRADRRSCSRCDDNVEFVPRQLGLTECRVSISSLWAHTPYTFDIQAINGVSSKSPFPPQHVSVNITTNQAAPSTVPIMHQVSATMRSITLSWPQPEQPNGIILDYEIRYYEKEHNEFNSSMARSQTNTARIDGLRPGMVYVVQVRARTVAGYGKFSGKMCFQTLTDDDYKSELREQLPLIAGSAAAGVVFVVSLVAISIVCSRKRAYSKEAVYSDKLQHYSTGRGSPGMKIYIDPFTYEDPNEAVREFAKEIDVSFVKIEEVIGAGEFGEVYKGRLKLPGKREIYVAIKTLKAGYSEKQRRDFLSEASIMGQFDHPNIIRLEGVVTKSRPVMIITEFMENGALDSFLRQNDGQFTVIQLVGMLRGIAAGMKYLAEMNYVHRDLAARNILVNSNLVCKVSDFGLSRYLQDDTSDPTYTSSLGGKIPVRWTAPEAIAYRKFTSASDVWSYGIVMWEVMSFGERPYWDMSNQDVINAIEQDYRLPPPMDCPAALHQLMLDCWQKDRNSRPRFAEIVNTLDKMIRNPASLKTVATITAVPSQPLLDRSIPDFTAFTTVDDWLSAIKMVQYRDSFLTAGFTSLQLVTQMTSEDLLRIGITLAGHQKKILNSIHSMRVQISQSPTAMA
Nature of the assay: Inhibition of EphB1 at 1 uM; values are per cent of control.

Assay [6] has as its target T3, Serine/threonine-protein kinase TBK1 (Homo sapiens) (UniProt Q9UHD2).
T3 sequence (whole entry): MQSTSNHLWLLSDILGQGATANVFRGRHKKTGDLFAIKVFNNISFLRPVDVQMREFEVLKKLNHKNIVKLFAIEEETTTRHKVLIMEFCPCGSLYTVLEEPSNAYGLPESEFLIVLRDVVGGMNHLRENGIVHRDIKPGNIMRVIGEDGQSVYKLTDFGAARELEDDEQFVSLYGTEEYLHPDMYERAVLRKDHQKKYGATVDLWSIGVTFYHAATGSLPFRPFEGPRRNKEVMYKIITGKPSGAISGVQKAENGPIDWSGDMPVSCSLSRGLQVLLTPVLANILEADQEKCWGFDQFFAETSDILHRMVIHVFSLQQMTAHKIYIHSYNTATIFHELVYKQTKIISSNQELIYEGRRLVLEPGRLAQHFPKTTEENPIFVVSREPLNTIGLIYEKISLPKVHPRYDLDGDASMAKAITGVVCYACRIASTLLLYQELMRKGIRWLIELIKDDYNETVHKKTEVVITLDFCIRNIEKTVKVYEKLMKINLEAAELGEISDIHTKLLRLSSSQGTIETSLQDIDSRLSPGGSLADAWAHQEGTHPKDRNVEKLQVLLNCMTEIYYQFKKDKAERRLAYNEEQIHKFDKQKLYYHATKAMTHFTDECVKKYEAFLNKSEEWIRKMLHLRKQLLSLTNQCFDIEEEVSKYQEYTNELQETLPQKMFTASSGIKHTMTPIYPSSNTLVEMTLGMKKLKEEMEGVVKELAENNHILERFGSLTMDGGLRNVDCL
The assay is described as follows: Inhibition of TBK1 at 1 uM; values are per cent of control.

The target in assay [7] is Ribosomal protein S6 kinase beta-1 (Homo sapiens) (UniProt P23443). Nature of the assay: Inhibition of p70S6K at 1 uM.
Ribosomal protein S6 kinase beta-1 (Homo sapiens), sequence (P23443 whole entry, looked up): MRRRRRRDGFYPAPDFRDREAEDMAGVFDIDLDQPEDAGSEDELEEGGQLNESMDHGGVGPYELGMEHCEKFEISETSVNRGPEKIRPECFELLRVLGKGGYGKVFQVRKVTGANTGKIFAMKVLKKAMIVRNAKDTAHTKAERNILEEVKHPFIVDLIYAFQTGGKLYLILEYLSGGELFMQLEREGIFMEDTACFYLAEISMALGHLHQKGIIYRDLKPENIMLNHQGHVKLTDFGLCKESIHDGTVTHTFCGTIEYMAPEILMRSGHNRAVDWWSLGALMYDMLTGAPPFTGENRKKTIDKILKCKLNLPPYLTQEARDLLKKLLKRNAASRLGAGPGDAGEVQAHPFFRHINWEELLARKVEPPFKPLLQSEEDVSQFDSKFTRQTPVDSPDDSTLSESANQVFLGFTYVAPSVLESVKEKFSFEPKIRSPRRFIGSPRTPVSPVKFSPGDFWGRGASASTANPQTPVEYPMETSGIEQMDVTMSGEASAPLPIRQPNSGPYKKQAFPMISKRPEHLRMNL
For assay [8], the target named is High affinity nerve growth factor receptor (Homo sapiens) (UniProt P04629). The assay is described as follows: Inhibition of TrkA at 0.1 uM; values are per cent of control.
High affinity nerve growth factor receptor (Homo sapiens), sequence (P04629 33-796 limits assumed): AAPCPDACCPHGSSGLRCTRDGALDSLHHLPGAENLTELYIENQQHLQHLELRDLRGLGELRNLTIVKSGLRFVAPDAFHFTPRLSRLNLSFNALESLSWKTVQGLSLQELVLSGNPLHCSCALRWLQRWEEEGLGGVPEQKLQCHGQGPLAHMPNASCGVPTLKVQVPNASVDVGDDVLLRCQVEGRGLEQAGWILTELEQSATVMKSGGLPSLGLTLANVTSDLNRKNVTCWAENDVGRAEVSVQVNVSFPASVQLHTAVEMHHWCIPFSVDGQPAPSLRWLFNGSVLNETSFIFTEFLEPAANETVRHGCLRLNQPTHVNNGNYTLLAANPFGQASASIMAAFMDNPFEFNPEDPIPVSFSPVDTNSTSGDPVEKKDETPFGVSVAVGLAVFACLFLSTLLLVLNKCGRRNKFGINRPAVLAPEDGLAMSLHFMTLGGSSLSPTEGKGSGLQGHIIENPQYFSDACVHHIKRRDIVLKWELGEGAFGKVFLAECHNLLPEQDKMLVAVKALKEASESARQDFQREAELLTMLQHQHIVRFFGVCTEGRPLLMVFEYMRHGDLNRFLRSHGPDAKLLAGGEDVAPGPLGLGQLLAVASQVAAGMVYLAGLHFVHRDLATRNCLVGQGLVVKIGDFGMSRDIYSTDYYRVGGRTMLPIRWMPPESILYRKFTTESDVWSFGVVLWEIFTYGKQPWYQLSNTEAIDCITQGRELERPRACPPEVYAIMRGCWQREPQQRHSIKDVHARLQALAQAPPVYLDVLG

As for `Cc1ccc2cc(-c3n[nH]c4ccc(NC5CCNC5)cc34)[nH]c2c1` (stereo unspecified), the residual activity in assay [1] was 56%; in assay [2] it was 41%; in assay [4], 1%; in assay [5], 5%; in assay [6] it was 2%; in assay [8], -1%. Moreover, the values for the inhibition in assay [3] and in assay [7] were 9% and 16%, respectively.

Turning to `Cc1ccc2cc(-c3n[nH]c4ccc(NC5CCN(Cc6ccccc6)CC5)cc34)[nH]c2c1`, the residual activity in assay [1] turned out to be 95%; in assay [2] it was 93%; in assay [4] it was 8%; in assay [5], 12%; in assay [6], 9%; in assay [8], 10%. In addition, the inhibition in assay [3] turned out to be 14%; in assay [7], 10%.
